Drawing on patent US20250313574A1, “SIALIC ACID DERIVATIVES AND METHODS OF USING SAME” (EISAI R&D MANAGEMENT CO., LTD., priority 2022, published 2025), this text covers EC50 for 37 molecules.

Each structure is given as a SMILES string.

Recombinant human CD33 protein, sequence (P20138 18-259): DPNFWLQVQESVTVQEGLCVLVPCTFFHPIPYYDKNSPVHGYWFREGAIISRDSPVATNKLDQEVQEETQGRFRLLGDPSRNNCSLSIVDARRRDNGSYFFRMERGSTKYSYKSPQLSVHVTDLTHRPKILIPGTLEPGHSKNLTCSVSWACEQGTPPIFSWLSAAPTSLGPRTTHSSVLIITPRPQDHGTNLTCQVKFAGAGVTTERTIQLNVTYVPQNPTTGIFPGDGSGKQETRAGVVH

For this test, the target named is Recombinant human CD33 protein (Homo sapiens (Human), UniProt P20138). Briefly: CD33 competitive binding assay for HTS drug screen (fluorescent multivalent sialic acid probe). Here is the method:
This is a competitive binding assay that uses recombinant CD33 immobilized to a plate and a fluorescently-labeled multivalent sialic acid analog as a probe. Binding of drug to the site on CD33 to which sialic acid binds is detected by reduced binding of the fluorescent probe. Recombinant human CD33 protein (for example Acro Biosystems cat #CD3-H5257) was added at a concentration of 10 μg/ml in 20 mM acetate buffer (pH5.5) to a black plastic plate (Corning 4510) and allowed to incubate overnight at 4° C. The next day, the wells were washed 3 times with PBS containing 0.02% Tween-20. This was followed by a 30-minute incubation with PBS containing 0.2% Tween-20 and 0.5% BSA to block non-specific binding to the well. This buffer is removed and replaced with 10 μl of the same buffer, which is also used as the assay buffer. The fluorescent multivalent sialic acid probe was prepared as a 4× concentration as follows. A biotinylated sialic acid analog A-375 was mixed with biotin-4-Fluorescein isothiocyanate (biotin-4-FITC) at a 3:1 molar ratio with final concentrations (4× stock) of 60 μM A-375 and 20 μM biotin-4-FITC. After these were mixed, 20 μM of neutravidin was added, which should form complexes consisting of neutravidin, fluorescein and sialic acid with an average complex consisting of 1 neutravidin, 1 FITC and 3 sialic acid analogs. The multimerization of the sialic acid analog is critical to the assay and improves the affinity of the sialic acid analog several orders of magnitude. A test compound, for example A-001, is added at 5 μl to the 10 μl assay buffer already in the well. After a brief incubation, 5 μl of the 4× stock solution of sialic acid complexes was added. The final concentration of the complexes was therefore 5 μM neutravidin, 15 μM A-375 and 5 μM FITC. The plate was incubated at room temperature for 30 mins and then washed with PBS containing 0.2% Tween-20. Binding of the sialic acid complex is very stable, with an off-rate of several days. Bound complex was then detected using a standard plate reader to quantify FITC fluorescence.
Consider `Cc1cc(C(=O)NC[C@H](O)C[C@H]2CC[C@H](C)[C@](CCN3CCOC[C@@]34CCN(C(=O)OC(C)(C)C)C4)(C(=O)O)O2)cc2cc[nH]c12` [A-218], for which the EC50 was above 20 µM.

As to `COC(C)(C)C(=O)N1CC[C@@]2(COCCN2CC[C@]2(C(=O)O)C[C@H](O)[C@@H](NC(C)=O)[C@H]([C@H](O)[C@H](O)CNC(=O)c3cc(C)c(O)c(C)c3)O2)C1` [A-085], the EC50 amounted to 1.28 µM.

On to `CC(=O)N[C@H]1[C@H]([C@H](O)[C@H](O)CNC(=O)c2cc(C)c(O)c(C)c2)O[C@@](CCN2CCC[C@@]23CCN(C(=O)OC(C)(C)C)C3)(C(=O)O)C[C@@H]1O` [A-019], for which the EC50 was found to be 0.028 µM.

`CC(=O)N[C@H]1[C@H]([C@H](O)[C@H](O)CNC(=O)c2cc(C)c(O)c(C)c2)O[C@@](CCN2CCOCC23CN(C(=O)OC(C)(C)C)C3)(C(=O)O)C[C@@H]1O` [A-008]: the EC50 came out at 0.538 µM.

For the molecule `CC(=O)N[C@H]1[C@H]([C@H](O)[C@H](O)CNC(=O)c2cc(C)c(O)c(C)c2)O[C@@](CCN2CCOC[C@@]23CCN(C(=O)CC(C)c2ccccc2)C3)(C(=O)O)C[C@@H]1O` (stereo partly shown) [A-068], the concentration giving a half-maximal response (EC50) came out at 0.101 µM.

In the case of `CC(=O)N[C@H]1[C@H]([C@H](O)[C@H](O)CNC(=O)c2cc(C)c(O)c(C)c2)O[C@@](CCN2CCOC[C@@]23CCN(C(=O)c2ccccn2)C3)(C(=O)O)C[C@@H]1O` [A-087], the concentration giving a half-maximal response (EC50) turned out to be 5.26 µM.

On to `CC(=O)N[C@H]1[C@H]([C@H](O)[C@H](O)CNC(=O)c2cc(C)c(O)c(C)c2)O[C@@](CCN2CCOC[C@@]23CCN(C(=O)N[C@H](C)c2ccc(Br)cc2)C3)(C(=O)O)C[C@@H]1O` [A-056], for which the EC50 amounted to 0.153 µM.

With `CC(=O)N[C@H]1[C@H]([C@H](O)[C@H](O)CNC(=O)c2cc(C)c(O)c(C)c2)O[C@@](CCN2CCOCC23CCN(C(=O)OC(C)(C)C)CC3)(C(=O)O)C[C@@H]1O` [A-007], the EC50 turned out to be 0.811 µM.

With `CC(=O)N[C@H]1[C@H]([C@H](O)[C@H](O)CNC(=O)c2cc(C)c(O)c(C)c2)O[C@@](CCN2CCOC[C@@]23CCN(C(=O)C2CCOCC2)C3)(C(=O)O)C[C@@H]1O` [A-091], the EC50 came to 0.452 µM.

In the case of `CC(=O)N[C@H]1[C@H]([C@H](O)[C@H](O)CNC(=O)c2cc(C)c(O)c(C)c2)O[C@@](CCN2CCOC[C@@]23CCN(C(=O)c2ccco2)C3)(C(=O)O)C[C@@H]1O` [A-093], the EC50 turned out to be 0.892 µM.

`CC(=O)N[C@H]1[C@H]([C@H](O)[C@H](O)CNC(=O)c2cc(C)c(O)c(C)c2)O[C@@](CCN2CCNC[C@]23CCN(C(=O)NC(C)(C)C)C3)(C(=O)O)C[C@@H]1O` [A-107]: the 50% effective concentration (EC50) stood at 0.379 µM.

In the case of `Cc1cc(C(=O)NCC(O)C[C@@H]2O[C@@](C/C=C/C3CCN(C(=O)OC(C)(C)C)C3)(C(=O)O)CCC2C)cc(C)c1O` (single isomer, unassigned) [A-209], the EC50 is 44.5 µM.

Regarding `CC(=O)N[C@H]1[C@H]([C@H](O)[C@H](O)CNC(=O)c2cc(C)c(O)c(C)c2)O[C@@](CCN2CCOC[C@@]23CCN(C(=O)CC2CCOCC2)C3)(C(=O)O)C[C@@H]1O` [A-073], the EC50 stood at 0.206 µM.

Turning to `CC(=O)N[C@H]1[C@H]([C@H](O)[C@H](O)CNC(=O)c2cc(C)c(O)c(C)c2)O[C@@](CCN2CCN(C)C[C@@]23CCN(C(=O)NC(C)(C)C)C3)(C(=O)O)C[C@@H]1O` [A-105], the concentration giving a half-maximal response (EC50) is 0.008 µM.

Take `COC(C)C(=O)N1CC[C@@]2(COCCN2CC[C@]2(C(=O)O)C[C@H](O)[C@@H](NC(C)=O)[C@H]([C@H](O)[C@H](O)CNC(=O)c3cc(C)c(O)c(C)c3)O2)C1` (stereo partly shown) [A-082]: the EC50 was above 5 µM.

Take `Cc1cc(C(=O)NC[C@H](O)C[C@H]2CC[C@@H](C)[C@](CCN3CCOC[C@@]34CCN(C(=O)OC(C)(C)C)C4)(C(=O)O)O2)cc2cc[nH]c12` [A-219]: the EC50 was above 20 µM.

For `CC(=O)N[C@H]1[C@H]([C@H](O)[C@H](O)CNC(=O)c2cc(C)c(O)c(C)c2)O[C@@](CCN2CCCCC23CCN(C(=O)OC(C)(C)C)C3)(C(=O)O)C[C@@H]1O` (stereo partly shown) [A-022], the half-maximal effective concentration (EC50) came out at 2.93 µM.

Regarding `CC(=O)N[C@H]1[C@H]([C@H](O)[C@H](O)CNC(=O)c2cc(C)c(O)c(C)c2)O[C@@](CCN2CCOC[C@@]23CCN(C(=O)c2ccc4[nH]cnc4c2)C3)(C(=O)O)C[C@@H]1O` [A-094], the EC50 was 2.33 µM.

As to `CC(=O)N[C@H]1[C@H]([C@H](O)[C@H](O)CNC(=O)c2cc(C)c(O)c(C)c2)O[C@@](C/C=C/C2(O)CCN(C(=O)OC(C)(C)C)C2)(C(=O)O)C[C@@H]1O` (stereo partly shown) [A-197], the EC50 is 0.181 µM.

For `CC(=O)N[C@H]1[C@H]([C@H](O)[C@H](O)CNC(=O)c2cc(C)c(O)c(C)c2)O[C@@](CCN2CCOC[C@@]23CCN(C(=O)COC(C)C)C3)(C(=O)O)C[C@@H]1O` [A-084], the concentration for a half-maximal effect (EC50) turned out to be 1.56 µM.

On to `CC(=O)N[C@H]1[C@H]([C@H](O)[C@H](O)CNC(=O)c2cc(C)c(O)c(C)c2)O[C@@](CCN2CCOC[C@@]23CCN(C(=O)c2c(C)cccc2C)C3)(C(=O)O)C[C@@H]1O` [A-086], for which the EC50 is above 5 µM.

As for `Cc1cc2cc(C)c1OCCCC[C@H](NC(=O)C1CCCOC1)c1cccc(c1)/C=C/C[C@]1(C(=O)O)C[C@H](O)[C@@H](NC(=O)Cn3cc(C4CCCCC4)nn3)[C@@H](O1)[C@H](O)[C@H](O)CNC2=O` (stereo partly shown) [A-350], the EC50 came to 13.3 µM.

As to `Cc1cc(C(=O)NCC(O)C[C@@H]2O[C@@](CCN3CCOC[C@@]34CCN(C(=O)OC(C)(C)C)C4)(C(=O)O)CCC2C)cc(C)c1O` (single isomer, unassigned) [A-213], the EC50 came to 17.9 µM.

Consider `CC(=O)N[C@H]1[C@H]([C@H](O)[C@H](O)CNC(=O)c2cc(C)c(O)c(C)c2)O[C@@](CCN2CCOC[C@@]23CCN(C(=O)COC(C)(C)C)C3)(C(=O)O)C[C@@H]1O` [A-090], for which the EC50 was determined as 3.12 µM.

As for `CC(=O)N[C@H]1[C@H]([C@H](O)[C@H](O)CNC(=O)c2cc(C)c(O)c(C)c2)O[C@@](CCN2CCOC[C@@]23CCN(c2cc(C)ccn2)C3)(C(=O)O)C[C@@H]1O` [A-038], the half-maximal effective concentration (EC50) was 0.053 µM.

In the case of `COC[C@@]1(N(C)CC[C@]2(C(=O)O)C[C@H](O)[C@@H](NC(C)=O)[C@H]([C@H](O)[C@H](O)CNC(=O)c3cc(C)c(O)c(C)c3)O2)CCN(C(=O)OC(C)(C)C)C1` [A-031], the EC50 came to 0.07 µM.

Regarding `CC(=O)N[C@H]1[C@H]([C@H](O)[C@H](O)CNC(=O)c2cc(C)c(O)c(C)c2)O[C@@](CCN2CCOC[C@@]23CCN(C(=O)COCC(F)(F)F)C3)(C(=O)O)C[C@@H]1O` [A-088], the EC50 was 1.95 µM.

In the case of `CC(=O)N[C@H]1[C@H]([C@H](O)[C@H](O)CNC(=O)/C=C/c2cn[nH]c2)O[C@@](CCN2CCOC[C@@]23CCN(C(=O)OC(C)(C)C)C3)(C(=O)O)C[C@@H]1O` [A-176], the EC50 is 0.65 µM.

On to `CC(=O)N[C@H]1[C@H]([C@H](O)[C@H](O)CNC(=O)c2cc(C)c(O)c(C)c2)O[C@@](CCN2CCOC[C@@]23CCN(C(=O)C2CCC(F)(F)CC2)C3)(C(=O)O)C[C@@H]1O` [A-075], for which the EC50 amounted to 0.099 µM.

Take `CC(=O)N[C@H]1[C@H]([C@H](O)[C@H](O)CNC(=O)c2cc(C)c(O)c(C)c2)O[C@@](CCN2CCOC[C@@]23CCN(c2cc(C(F)(F)F)ccn2)C3)(C(=O)O)C[C@@H]1O` [A-039]: the EC50 was 0.095 µM.

With `CC(=O)N[C@H]1[C@H]([C@H](O)[C@H](O)CNC(=O)c2cc(C)c(O)c(C)c2)O[C@@](CC2OC(C)(C)O[C@H]2c2ccc3c(c2)N(C(=O)OC(C)(C)C)CC3)(C(=O)O)C[C@@H]1O` (stereo partly shown) [A-308], the EC50 is 2.94 µM.

For `Cc1cc(C(=O)NCC(O)C[C@@H]2O[C@@](CCN3CCOC[C@@]34CCN(C(=O)OC(C)(C)C)C4)(C(=O)O)CCC2C)cc(C)c1O` (single isomer, unassigned) [A-215], the EC50 amounted to 60.4 µM.

As for `CC(=O)N[C@H]1[C@H]([C@H](O)[C@H](O)CNC(=O)c2cc(C)c(O)c(C)c2)O[C@@](CCN2CCOC[C@@]23CCN(C(=O)C2CCC(F)(F)C2)C3)(C(=O)O)C[C@@H]1O` (stereo partly shown) [A-074], the EC50 worked out at 0.263 µM.

Regarding `C=C(C)c1ccc(C(C)(C)NC(=O)N2CC[C@@]3(COCCN3CC[C@]3(C(=O)O)C[C@H](O)[C@@H](NC(C)=O)[C@H]([C@H](O)[C@H](O)CNC(=O)c4cc(C)c(O)c(C)c4)O3)C2)cc1` [A-046], the half-maximal effective concentration (EC50) worked out at 0.063 µM.

Consider `Cc1cc(C(=O)NC[C@@H](O)C[C@H]2CC[C@@H](C)[C@](CCN3CCOC[C@@]34CCN(C(=O)OC(C)(C)C)C4)(C(=O)O)O2)cc2cc[nH]c12` [A-217], for which the EC50 was above 20 µM.

`CC(=O)N[C@H]1[C@H]([C@H](O)[C@H](O)CNC(=O)c2cc(C)c(O)c(C)c2)O[C@@](CCN2CCC23CCN(C(=O)OC(C)(C)C)C3)(C(=O)O)C[C@@H]1O` (stereo partly shown) [A-018]: the EC50 came to 0.162 µM.

With `CC(=O)N[C@H]1[C@H]([C@H](O)[C@H](O)CNC(=O)c2cc(C)c(O)c(C)c2)O[C@@](CCN2CCOC[C@@]23CCN(C(=O)COC2CCCC2)C3)(C(=O)O)C[C@@H]1O` [A-092], the 50% effective concentration (EC50) came to 2.05 µM.
